One experiment addresses T1, human PLK4 (Homo sapiens, UniProt O00444).
T1 construct: amino terminal GST fusion of residues 1-391 of human PLK4; made in house; host or cells: E. coli
T1 sequence (O00444 1-391): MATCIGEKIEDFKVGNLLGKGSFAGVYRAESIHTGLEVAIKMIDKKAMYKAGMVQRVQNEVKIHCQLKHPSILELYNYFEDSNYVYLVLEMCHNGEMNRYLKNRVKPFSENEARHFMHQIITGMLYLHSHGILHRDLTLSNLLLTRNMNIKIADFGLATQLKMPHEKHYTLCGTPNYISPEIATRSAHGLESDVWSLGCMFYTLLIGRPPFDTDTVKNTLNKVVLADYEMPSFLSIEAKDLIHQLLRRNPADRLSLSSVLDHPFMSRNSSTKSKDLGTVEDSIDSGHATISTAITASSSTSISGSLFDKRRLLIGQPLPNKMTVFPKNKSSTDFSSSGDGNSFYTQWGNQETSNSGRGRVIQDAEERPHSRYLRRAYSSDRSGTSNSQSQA
As to the kind of experiment: PLK4 Inhibition Assay (indirect ELISA). The experiment is classed as biochemical. The following applies: 15 μM ATP, 4 nM GST-PLK4; read-out: PLK4 IC50 Ranges. A digest of the protocol: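 IC50 values, from 4-point logistic fitting, reflect remaining activity measured by indirect ELISA. Enzyme was GST-PLK4 treated with lambda phosphatase and given a 15-minute pre-incubation with compound before ATP start.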
On the technique in general: ELISA stands for enzyme-linked immunosorbent assay.

A further experiment addresses T2, PLK1 (Homo sapiens, UniProt P53350).
T2 construct: purchased Invitrogen PV3501
As to the kind of experiment: PLK1 Inhibition Assay (Z-Lyte). The experiment is classed as biochemical. The following applies: 25 μM ATP, 8 nM PLK1; read-out: PLK1 IC50 Ranges. As to the method: PLK1 inhibition was determined using the Z-Lyte assay kit from Invitrogen (cat #PV3802). […] The % inhibition values were determined according to the manufacturer's directions and IC50 values were obtained using a non-linear 4 point logistic curve fit (XLfit4, IDBS)

A further experiment concerns the target T3, PLK2 (Homo sapiens, UniProt Q9NYY3).
T3 construct: purchased Invitrogen PV4204
Kind of experiment: PLK2 Inhibition Assay (Z-Lyte). The format is biochemical. As to conditions: for inhibition at 10 µM: 10 μM compound, read-out: PLK2 relative inhibition percentage at a dose of 10 μM. Here is the method:
PLK2 inhibition was determined using the Z-Lyte assay kit from Invitrogen (cat #PV3802). The assay was performed using the recommended manufacturer's instructions with 60 μM ATP and 133 nM PLK2 (Invitrogen cat #PV4204). The % inhibition values were determined according to the manufacturer's directions and IC50 values were obtained using a non-linear 4 point logistic curve fit (XLfit4, IDBS)

For a further experiment, the target named is T4, PLK3 (Homo sapiens, UniProt Q9H4B4).
T4 construct: purchased Invitrogen PV3812
T4 sequence (Q9H4B4 whole entry): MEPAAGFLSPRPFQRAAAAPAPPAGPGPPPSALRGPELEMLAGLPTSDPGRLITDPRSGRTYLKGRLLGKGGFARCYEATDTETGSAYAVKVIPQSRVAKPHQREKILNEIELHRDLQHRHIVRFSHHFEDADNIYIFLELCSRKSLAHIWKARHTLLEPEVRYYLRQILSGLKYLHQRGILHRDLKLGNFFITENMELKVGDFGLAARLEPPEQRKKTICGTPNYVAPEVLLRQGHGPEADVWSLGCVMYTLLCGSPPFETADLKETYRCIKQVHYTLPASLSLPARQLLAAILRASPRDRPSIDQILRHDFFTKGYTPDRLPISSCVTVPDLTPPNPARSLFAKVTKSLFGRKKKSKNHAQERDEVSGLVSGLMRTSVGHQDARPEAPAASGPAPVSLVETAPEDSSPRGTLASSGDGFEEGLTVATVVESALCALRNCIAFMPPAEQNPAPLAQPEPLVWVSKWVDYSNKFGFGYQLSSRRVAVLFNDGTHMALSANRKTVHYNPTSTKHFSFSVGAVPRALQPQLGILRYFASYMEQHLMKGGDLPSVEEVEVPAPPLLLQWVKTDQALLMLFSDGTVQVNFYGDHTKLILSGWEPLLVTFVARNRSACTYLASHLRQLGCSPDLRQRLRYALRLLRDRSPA
As to the kind of experiment: PLK3 Inhibition Assay (Z-Lyte). As to conditions: 100 μM ATP, 21 nM PLK3. The format is biochemical. Here is the method: PLK3 inhibition was determined using the Z-Lyte assay kit from Invitrogen (cat #PV3802). The assay was performed using the recommended manufacturer's instructions with 100 μM ATP and 21 nM PLK3 (Invitrogen cat #PV3812). The % inhibition values were determined according to the manufacturer's directions and IC50 values were obtained using a non-linear 4 point logistic curve fit (XLfit4, IDBS).

A further experiment addresses T5, Aurora A (Homo sapiens, UniProt O14965).
T5 construct: purchased Invitrogen PV3612
T5 sequence (O14965 1-403): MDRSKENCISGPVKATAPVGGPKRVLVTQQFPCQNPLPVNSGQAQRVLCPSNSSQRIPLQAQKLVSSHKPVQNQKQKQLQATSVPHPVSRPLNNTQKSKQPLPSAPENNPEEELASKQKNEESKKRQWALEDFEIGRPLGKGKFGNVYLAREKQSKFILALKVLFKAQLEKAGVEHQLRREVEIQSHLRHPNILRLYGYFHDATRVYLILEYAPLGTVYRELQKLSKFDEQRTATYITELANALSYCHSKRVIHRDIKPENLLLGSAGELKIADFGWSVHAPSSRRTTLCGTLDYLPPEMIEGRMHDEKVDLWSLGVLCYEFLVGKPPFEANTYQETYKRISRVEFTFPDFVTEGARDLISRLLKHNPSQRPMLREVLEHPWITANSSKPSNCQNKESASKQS
As to the kind of experiment: Aurora A Inhibition Assay (Z-Lyte). As to conditions: for pIC50: 20 μM ATP, 12 nM Aurora A, read-out: Aurora A IC50 Ranges. The format is biochemical. As to the method:
Aurora A inhibition was determined using the Z-Lyte assay kit from Invitrogen. The assay was performed using the recommended manufacturer's instructions with 20 μM ATP and 12 nM Aurora A (Invitrogen cat #PV3612). The % inhibition values were determined according to the manufacturer's directions and IC50 values were obtained using a non-linear 4 point logistic curve fit (XLfit4, IDBS)

For another experiment, the target named is T6, Aurora B (Homo sapiens, UniProt Q96GD4).
T6 construct: purchased Invitrogen PV3970
T6 sequence (Q96GD4 whole entry): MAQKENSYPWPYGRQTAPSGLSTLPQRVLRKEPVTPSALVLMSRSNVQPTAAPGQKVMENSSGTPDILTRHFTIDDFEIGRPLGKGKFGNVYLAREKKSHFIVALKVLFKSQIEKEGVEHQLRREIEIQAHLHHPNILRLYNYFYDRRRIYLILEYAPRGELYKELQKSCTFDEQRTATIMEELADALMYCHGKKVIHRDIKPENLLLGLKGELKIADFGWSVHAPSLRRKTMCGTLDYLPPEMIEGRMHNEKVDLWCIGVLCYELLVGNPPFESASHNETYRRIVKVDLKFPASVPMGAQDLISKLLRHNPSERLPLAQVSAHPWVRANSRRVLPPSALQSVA
Kind of experiment: Aurora B Inhibition Assay (Z-Lyte). The experiment is classed as biochemical. The following applies: for pIC50: 128 μM ATP, 28 nM Aurora B, read-out: Aurora B IC50 Ranges. Here is the method: Aurora B inhibition was determined using the Z-Lyte assay kit from Invitrogen. The assay was performed using the recommended manufacturer's instructions with 128 μM ATP and 28 nM Aurora B (Invitrogen cat #PV3970). The % inhibition values were determined according to the manufacturer's directions and IC50 values were obtained using a non-linear 4 point logistic curve fit (XLfit4, IDBS)

The subject of experiment [1] is MCF-7 luminal breast cancer cell line. Kind of experiment: Cell growth inhibition, Sulforhodamine B assay (SRB). The experiment is classed as cell-based. As to conditions: Homo sapiens. As to the method:
(§1) Breast cancer cells (MCF-7, MDA-MB-468, HCC1954), colon cancer cells (SW620) and lung cancer cells (A549), together with human mammary epithelial primary cells (HMEC), were seeded (1000 to 4000 per 80 μl per well depending on the cell growth rate) into 96 well plates, 24 hours before compound overlay. Compounds were prepared as 10 mM stock solutions in 100% DMSO which were diluted with DMEM (Dulbecco's Modified Eagle's Medium) cell growth Medium (Invitrogen, Burlington, ON, Canada) containing 10% FBS (Fetal Bovine Serum) to concentrations ranging from 50 nM to 250 μM. Aliquots (20 μl) from each concentration were overlaid to 80 μl of the pre-seeded cells in the 96 well plates to make final concentrations of 10 nM to 50 μM. The cells were cultured for 5 days before the Sulforhodamine B assay (SRB) was performed to determine the compound's cell growth inhibition activity.
(§2) Sulforhodamine B (purchased from Sigma, Oakville, ON, Canada) is a water-soluble dye that binds to the basic amino acids of the cellular proteins. Thus, colorimetric measurement of the bound dye provides an estimate of the total protein mass that is related to the cell number. the cells are fixed in situ by gently aspirating off the culture media and adding 50 μl ice cold 10% Tri-chloroacetic Acid (TCA) per well and incubate at 4° C. for 30-60 min, The plates are washed with water five times and allowed to air dry for 5 min. Addition of 50 μl 0.4% (w/v) SRB solution in 1% (v/v) acetic acid to each well and incubatation for 30 min at RT completes the staining reaction. Following staining, plates are washed four times with 1% acetic acid to remove unbound dye and then allowed to air dry for 5 min. The stain is solubilized with 100 μl of 10 mM Tris pH10.5 per well. Absorbance is read at 570 nm.
(§3) The percentage (%) of relative growth inhibition was calculated by comparing to DMSO treated only cells (100%). GI50's were determined for compounds with cytotoxic activity. The GI50 was calculated using GraphPad PRISM software (GraphPad Software, Inc., San Diego, Calif., USA).
A general note: The SRB assay estimates cell density from bound dye.

Experiment [2] has as its system MDA-MB-468 basal breast cancer cell line. Described as above. As to conditions: Homo sapiens. The format is cell-based. Here is the method: as §1, §2, §3
Experiment [3] relates to T47 D breast cancer cell line. As to the kind of experiment: Cell growth inhibition, SRB assay, extended panel. The experiment is classed as cell-based. As to conditions: Homo sapiens, T47D; read-out: GI50 on T47D Breast cancer cell line. Here is the method:
as §1, §2, §3
In addition to the cell lines tested as described above, selected compounds have been assayed against an extended panel. […] The sulforhodamine B assay (SRB) described above was use to assay test compounds against the extended panel (Table 9).

The next experiment has as its system A549 lung cancer cells. Kind of experiment: Cell growth inhibition, Sulforhodamine B assay (SRB). The experiment is classed as cell-based. As to conditions: Homo sapiens, A549, 120 h, 5 days culture, read-out: Cell Line GI50 Range, A-549. As to the method: as §1, §2, §3
The subject of experiment [4] is HCC1954 basal breast cancer cell line. The experiment is described as above. The experiment is classed as cell-based. The following applies: Homo sapiens, HCC1954, 120 h, 5 days culture, read-out: Cell Line GI50 Range, HCC-1954. Here is the method:
as §1, §2, §3

The next experiment relates to SW620 colon cancer cells. Described as above. The format is cell-based. The following applies: Homo sapiens, SW-620, 120 h, 5 days culture, read-out: Cell Line GI50 Range, SW-620. Here is the method:
as §1, §2, §3

Setting [5] is: MCF7, 120 h, 5 days culture, SRB, read-out: Cell Line GI50 Range, MCF-7.
Where [6] appears, read: MDA-MB-468, 120 h, 5 days culture, SRB, read-out: Cell Line GI50 Range, MDA-MB-468.

pIC50: −log10 of the molar value. Read-outs that look alike come from different tables or passages of the source.

T2 sequence (P53350 whole entry): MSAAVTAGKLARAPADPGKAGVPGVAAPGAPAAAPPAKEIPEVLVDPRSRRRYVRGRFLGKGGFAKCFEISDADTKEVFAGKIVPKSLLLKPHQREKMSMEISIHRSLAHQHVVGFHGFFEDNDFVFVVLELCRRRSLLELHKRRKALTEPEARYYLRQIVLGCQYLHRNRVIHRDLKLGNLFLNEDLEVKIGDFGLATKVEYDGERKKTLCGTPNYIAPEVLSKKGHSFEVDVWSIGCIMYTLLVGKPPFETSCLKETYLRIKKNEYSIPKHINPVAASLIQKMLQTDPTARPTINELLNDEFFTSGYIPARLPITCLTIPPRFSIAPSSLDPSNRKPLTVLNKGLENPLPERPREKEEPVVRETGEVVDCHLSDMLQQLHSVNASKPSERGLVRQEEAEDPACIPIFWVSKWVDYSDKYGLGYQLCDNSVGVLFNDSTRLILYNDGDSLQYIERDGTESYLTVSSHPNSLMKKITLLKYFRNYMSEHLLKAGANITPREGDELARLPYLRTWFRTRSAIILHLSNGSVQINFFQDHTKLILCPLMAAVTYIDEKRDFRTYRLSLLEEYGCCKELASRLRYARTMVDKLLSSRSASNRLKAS
T3 sequence (Q9NYY3 whole entry): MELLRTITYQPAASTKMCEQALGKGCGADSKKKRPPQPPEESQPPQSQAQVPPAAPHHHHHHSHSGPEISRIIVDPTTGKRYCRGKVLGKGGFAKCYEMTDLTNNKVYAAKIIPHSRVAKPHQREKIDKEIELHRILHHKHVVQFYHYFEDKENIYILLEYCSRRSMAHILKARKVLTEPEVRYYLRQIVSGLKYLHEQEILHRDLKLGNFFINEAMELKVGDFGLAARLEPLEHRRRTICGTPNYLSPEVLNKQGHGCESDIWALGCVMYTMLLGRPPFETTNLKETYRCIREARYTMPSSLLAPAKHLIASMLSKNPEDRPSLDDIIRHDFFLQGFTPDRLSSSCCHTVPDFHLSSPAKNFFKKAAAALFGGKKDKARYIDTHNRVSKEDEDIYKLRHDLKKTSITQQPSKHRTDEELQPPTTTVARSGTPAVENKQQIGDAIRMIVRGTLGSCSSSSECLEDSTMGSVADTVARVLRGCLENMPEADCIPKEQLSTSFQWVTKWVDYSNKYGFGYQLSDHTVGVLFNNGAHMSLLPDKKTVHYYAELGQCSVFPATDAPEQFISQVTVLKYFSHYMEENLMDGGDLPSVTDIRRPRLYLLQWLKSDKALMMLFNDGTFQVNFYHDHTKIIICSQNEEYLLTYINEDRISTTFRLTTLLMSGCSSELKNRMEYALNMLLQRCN

Take `CC(=O)Nc1cccc2c1NC(=O)/C2=C/c1ccc2cn[nH]c2c1` [Example A49, (E)-N-(3-((1H-indazol-6-yl)methylene)-2-oxoindolin-7-yl)acetamide]: the pIC50 (as a rule, the negative decadic logarithm of the IC50, by convention in mol/L) at human PLK4 was more than 5.30; at PLK1, less than 4.30; on PLK3 it was less than 6.30. Moreover, the inhibition (commonly how much of the control response was suppressed) at 10 µM at PLK2 was more than 50%.
As for `CN(C)c1ccc(C#Cc2n[nH]c3cc(C=C4C(=O)Nc5ccccc54)ccc23)cc1` (mixture of isomers) [Example A149, (E and Z)-3-((3-((4-(dimethylamino)phenyl)ethynyl)-1H-indazol-6-yl)methylene)indolin-2-one], the pIC50 was more than 5.30 at human PLK4, 4.30 to 5.30 at Aurora A, more than 5.30 on Aurora B and less than 6.30 against PLK3.
Consider `O=C(O)/C=C/c1n[nH]c2cc(/C=C3/C(=O)Nc4ccccc43)ccc12` [Example A70, (E)-3-(6-((E)-(2-oxoindolin-3-ylidene)methyl)-1H-indazol-3-yl)acrylic acid], for which the negative-log IC50 (pIC50) at human PLK4 was more than 5.30. Further, the GI50 (as a rule, the concentration at which growth is held to half of that of the control) in experiment [1] (MCF7, read-out: GI50 on MCF-7 Breast cancer cell line) was more than 50 µM; in experiment [2] (MDA-MB-468, read-out: GI50 on MDA-MB-468 Breast cancer cell line), more than 50 µM; in [3] it was more than 50 µM.
`CC(C)c1ccc2c(c1)/C(=C\c1ccc3c(/C=C/c4ccncc4)n[nH]c3c1)C(=O)N2` [Example A127, (E)-5-isopropyl-3-((3-((E)-2-(pyridin-4-yl)vinyl)-1H-indazol-6-yl)methylene)indolin-2-one 2,2,2-trifluoroacetate]: the negative logarithm of the IC50 (pIC50) at human PLK4 is more than 5.30; at Aurora A, more than 5.30; on Aurora B, more than 5.30; at PLK3 it was less than 6.30. Besides, the GI50 in the experiment with A549 lung cancer cells was 5 to 20 µM; in [4], less than 5 µM; in [1] (setting [5]), less than 5 µM; in [2] (setting [6]), less than 5 µM; with SW620 colon cancer cells, less than 5 µM.
On to `Cc1ccc2c(c1)/C(=C\c1ccc3c(/C=C/C(=O)N(C)CCN(C)C)n[nH]c3c1)C(=O)N2` [Example A125, (E and Z)—N-(2-(dimethylamino)ethyl)-N-methyl-3-(6-((E)-(5-methyl-2-oxoindolin-3-ylidene)methyl)-1H-indazol-3-yl)acrylamide], for which the pIC50 on human PLK4 is more than 5.30; at Aurora B, more than 5.30; at PLK3 it was less than 6.30. Besides, the inhibition at 10 µM at Aurora A (10 μM compound, read-out: Aurora A relative inhibition percentage at a dose of 10 μM) is more than 50%.
On to `COc1ccc2c(c1)C(=Cc1ccc3c(-c4cccc(-c5nnn[nH]5)c4)n[nH]c3c1)C(=O)N2` (mixture of isomers) [Example A153, (E and Z)-3-((3-(3-(1H-tetrazol-5-yl)phenyl)-1H-indazol-6-yl)methylene)-5-methoxyindolin-2-one], for which the pIC50 at human PLK4 is more than 5.30; on Aurora A, more than 5.30; at Aurora B, more than 5.30; against PLK3 it was less than 6.30.
As for `O=C1Nc2ccccc2/C1=C\c1ccc2[nH]ncc2c1` [Example A6, (E)-3-((1H-indazol-5-yl)methylene)indolin-2-one], the pIC50 was more than 5.30 on human PLK4; 4.30 to 5.30 at PLK1; more than 5.30 at PLK2 (60 μM ATP, 133 nM PLK2, read-out: PLK2 IC50 Ranges); more than 5.30 at Aurora A; more than 5.30 at Aurora B; less than 6.30 against PLK3. The GI50 in [1] (setting [5]) and in [2] (setting [6]) was 5 to 20 µM throughout.
Turning to `CC(C)NC(=O)Nc1ccc2c(c1)/C(=C\c1ccc3cn[nH]c3c1)C(=O)N2` [Example A26, (E)-1-(3-((1H-indazol-6-yl)methylene)-2-oxoindolin-5-yl)-3-isopropylurea], the pIC50 on human PLK4 is more than 5.30; on PLK1 it was 4.30 to 5.30; on Aurora A, more than 5.30; against PLK3, less than 6.30. For the same compound, the inhibition at 10 µM on PLK2 is less than 50%; on Aurora B (10 μM compound, read-out: Aurora B relative inhibition percentage at a dose of 10 μM) it was less than 50%.
As to `Nc1ccc2c(c1)/C(=C\c1ccc3[nH]nnc3c1)C(=O)N2` [Example A2, (E)-3-((1H-benzo[d][1,2,3]triazol-5-yl)methylene)-5-aminoindolin-2-one], the pIC50 on human PLK4 was more than 5.30; at PLK1 it was 4.30 to 5.30; at Aurora A, more than 5.30; at Aurora B, more than 5.30; against PLK3, less than 6.30. Moreover, the inhibition at 10 µM on PLK2 was less than 50%. Also, the GI50 in [1] (setting [5]) is more than 50 µM; in experiment [2] (setting [6]) it was 5 to 20 µM.

(Values after patent US8765748B2, “Indazolyl, benzimidazolyl, benzotriazolyl substituted indolinone derivatives as kinase inhibitors useful in the treatment of cancer” (University Health Network, priority 2007, dated 2014).)
